Test results taken from ChEMBL document CHEMBL1201862, “PubChem BioAssay data set” (2004).
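Assay format: 96-well plates, 48-hour exposure. Here, GI50 denotes the concentration required for 50% inhibition of growth.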 The source made the active and inactive calls. Rule as the data show it: active = GI50 up to about 1.1 µM and inactive = higher.

Legend:
Assay in all cases: NCI-60 cell line screen, 48 h
[1] = test system: RXF 393
[2] = test system: HOP-62
[3] = test system: SK-OV-3
[4] = test system: 786-0
[5] = test system: NCI-H23
[6] = test system: HT-29
[7] = test system: OVCAR-3
[8] = test system: CAKI-1
[9] = test system: CCRF-CEM
[10] = test system: SF-268
[11] = test system: KM12
[12] = test system: MDA-MB-231
[13] = test system: NCI/ADR-RES
[14] = test system: SR
[15] = test system: DU-145
[16] = test system: NCI-H226
[17] = test system: T47D
[18] = test system: HCC 2998

Measured: GI50

C=CCC1=C(C)C[C@@H]2CCC(=O)C=C12
inactive: [1] > 100 µM | [2] > 100 µM | [3] > 100 µM | [4] > 100 µM | [5] > 100 µM | [6] > 100 µM | [7] > 100 µM | [8] > 100 µM | [9] > 100 µM | [10] > 100 µM | [11] > 100 µM

c1ccc(-c2nnn3c2NC2=C(CCCC2)C3c2ccccc2)cc1 (stereo not drawn)
inactive: [1] 17.1 µM | [2] 16.4 µM | [3] 22.1 µM | [12] 24.6 µM | [4] 16.7 µM | [13] 21.7 µM | [5] 25.8 µM | [6] 15.1 µM | [7] 18.4 µM | [14] 13.5 µM | [15] 17.7 µM | [16] 27.4 µM | [8] 18.2 µM | [17] 22.5 µM | [9] 12.3 µM | [10] 21.3 µM | [11] 15.5 µM

OC1NC2CC3NC(O)C(O)NC3CC2NC1O (stereo not drawn)
inactive: [1] > 100 µM | [2] > 100 µM | [3] > 100 µM | [12] > 100 µM | [4] > 100 µM | [13] > 100 µM | [5] > 100 µM | [6] > 100 µM | [7] > 100 µM | [18] > 100 µM | [14] > 100 µM | [15] > 100 µM | [16] > 100 µM | [8] > 100 µM | [17] > 100 µM | [9] > 100 µM | [10] > 100 µM | [11] > 100 µM

C=CC(=O)Nc1ccccc1CC(c1c[nH]c2ccccc12)c1c[nH]c2ccccc12
inactive: [1] > 10 µM | [2] 19.6 µM | [3] 19.8 µM | [4] 18.8 µM | [5] 20 µM | [6] 18.3 µM | [7] 17.7 µM | [18] 18.7 µM | [16] 21.3 µM | [8] 18.2 µM | [9] 19.9 µM | [10] 24.1 µM | [11] 19.7 µM

CC1=NN(c2cccc(Cl)c2)C(=N/c2nc3ccccc3s2)/C1=C\c1ccc(Cl)cc1
inactive: [1] 20.3 µM | [2] 21.5 µM | [3] 36.4 µM | [12] 20.7 µM | [4] 18.8 µM | [13] 22.5 µM | [5] 18.7 µM | [6] 17.9 µM | [7] 21.7 µM | [18] 16.4 µM | [14] 24.7 µM | [15] 34.2 µM | [16] 21.2 µM | [17] 33.6 µM | [9] 26.1 µM | [10] 19.3 µM

O=C1NC2(CCCCCC2)C2CCCCCCC12O (stereo not drawn)
inactive: [1] > 100 µM | [2] > 100 µM | [3] > 100 µM | [4] > 100 µM | [5] > 100 µM | [6] > 100 µM | [7] > 100 µM | [14] > 100 µM | [8] > 100 µM | [9] > 100 µM | [10] > 100 µM | [11] > 100 µM

CC(C)C(NC(=O)C(Cc1ccccc1)NC(=O)[C@H]1CCC[C@H]1NC(=O)C(Cc1ccc(OC(C)(C)C)cc1)NC(=O)OC(C)(C)C)C(N)=O (stereo partly drawn)
inactive: [1] 81.1 µM | [2] 16.6 µM | [3] 17.9 µM | [12] 20.7 µM | [4] 60.1 µM | [13] > 100 µM | [5] 16.9 µM | [6] 21.5 µM | [7] 25.1 µM | [18] 16.5 µM | [14] 34.9 µM | [15] 54.2 µM | [16] 22.4 µM | [8] 95.9 µM | [17] 20 µM | [9] 16.6 µM | [10] 23.1 µM | [11] 21.9 µM

COC(=O)CCc1ccc(CCC(=O)OC)cc1
inactive: [1] > 100 µM | [2] > 100 µM | [3] > 100 µM | [12] > 100 µM | [4] > 100 µM | [13] > 100 µM | [5] > 100 µM | [6] > 100 µM | [7] > 100 µM | [18] > 100 µM | [14] > 100 µM | [15] > 100 µM | [8] > 100 µM | [17] > 100 µM | [9] > 100 µM | [10] > 100 µM

O=CC1CCC=CC1NC(=O)OCc1ccccc1 (stereo not drawn)
inactive: [1] 54.6 µM | [2] > 100 µM | [3] > 100 µM | [4] 33.8 µM | [5] > 100 µM | [6] 51.4 µM | [14] 30.7 µM | [16] > 100 µM | [8] 34.4 µM | [9] 25.9 µM | [10] 85.5 µM | [11] 47 µM
